# Laboratory results reported in patent publication US6737383B1, “Herbicidal oxadiazolidines” (priority 1999, dated 2004).
# Key:
# [1] = system: rice; test: Test B flood test rice; type: in vivo, Oryza sativa
# How it was run: (§1)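 Plants were grown to the 2-leaf stage before treatment with test chemical, then held in a greenhouse for twelve to sixteen days. Injury was visually rated against untreated controls on a 0–10 scale, where 0 is no effect and 10 is complete control.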
# [2] = system: purple nutsedge; test: Test B pre/postemergence purple nutsedge; type: in vivo, Cyperus rotundus
# How it was run: (§2)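 Test chemicals in a non-phytotoxic solvent mixture with surfactant were sprayed preemergence onto planted seeds and postemergence onto plants 2 to 18 cm tall (1- to 4-leaf stage). After twelve to sixteen days in a greenhouse, injury was visually rated against untreated controls from 0 (no effect) to 10 (complete control).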
# [3] = system: soybean; test: Test B pre/postemergence soybean; type: in vivo, Glycine max
# How it was run: as §2
# [4] = system: duck salad; test: Test B flood test duck salad; type: in vivo, Heteranthera limosa
# How it was run: as §1
# [5] = system: blackgrass; test: Test B pre/postemergence blackgrass; type: in vivo, Alopecurus myosuroides
# How it was run: as §2
# [6] = system: bedstraw; test: Test B pre/postemergence bedstraw; type: in vivo, Galium aparine
# How it was run: as §2
# [7] = system: morningglory; test: Test B pre/postemergence morningglory; type: in vivo, Ipomoea hederacea
# How it was run: as §2
# [8] = system: velvetleaf; test: Test B pre/postemergence velvetleaf; type: in vivo, Abutilon theophrasti
# How it was run: as §2
# [9] = system: surinam grass; test: Test B pre/postemergence surinam grass; type: in vivo, Brachiaria decumbens
# How it was run: as §2
# [10] = system: rape; test: Test B pre/postemergence rape; type: in vivo, Brassica napus
# How it was run: as §2
# [11] = system: wheat; test: Test B pre/postemergence wheat; type: in vivo, Triticum aestivum
# How it was run: as §2
# [12] = system: bamyardgrass; test: Test B flood test barnyardgrass; type: in vivo, Echinochloa crus-galli
# How it was run: as §1
# [13] = system: crabgrass; test: Test B pre/postemergence crabgrass; type: in vivo, Digitaria sanguinalis
# How it was run: as §2
# [14] = system: smallflower flatsedge; test: Test B flood test smallflower flatsedge; type: in vivo, Cyperus difformis
# How it was run: as §1
# [15] = system: pigweed; test: Test B pre/postemergence pigweed; type: in vivo, Amaranthus retroflexus
# How it was run: as §2
# [16] = system: wild oat; test: Test B pre/postemergence wild oat; type: in vivo, Avena fatua
# How it was run: as §2
# [17] = system: cocklebur; test: Test B pre/postemergence cocklebur; type: in vivo, Xanthium strumarium
# How it was run: as §2
# [18] = system: corn; test: Test B pre/postemergence corn; type: in vivo, Zea mays
# How it was run: as §2
# [19] = system: giant foxtail; test: Test B pre/postemergence giant foxtail; type: in vivo, Setaria faberii
# How it was run: as §2
# [20] = system: sugar beet; test: Test B pre/postemergence sugar beet; type: in vivo, Beta vulgaris
# How it was run: as §2
# [21] = Rate 62 g/ha, flood test species, Pre-emergence, visual evaluation after twelve to sixteen days
# [22] = Rate 125 g/ha, under heading Pre-emergence, flood test species, visual evaluation after twelve to sixteen days
# [23] = Rate 250 g/ha, Pre-emergence (flood test species), scale 0 to 10, 0 is no effect, 10 is complete control
# [24] = Rate 500 g/ha, Pre-emergence section of Table B, 0 to 10 scale (0 no effect, 10 complete control)
# [25] = Postemergence, Rate 62 g/ha, scale 0 to 10, 0 is no effect, 10 is complete control
# [26] = Postemergence, Rate 125 g/ha, scale of 0 to 10 where 0 is no effect and 10 is complete control
# [27] = Preemergence, Rate 62 g/ha, scale of 0 to 10 where 0 is no effect and 10 is complete control
# [28] = Preemergence, Rate 125 g/ha, scale of 0 to 10 where 0 is no effect and 10 is complete control
# [29] = Preemergence, Rate 500 g/ha, scale of 0 to 10 where 0 is no effect and 10 is complete control
# [30] = Rate 500 g/ha, Postemergence, scale 0 to 10, 0 is no effect, 10 is complete control
# [31] = Postemergence, Rate 250 g/ha, scale of 0 to 10, 0 is no effect, 10 is complete control
# [32] = Preemergence, Rate 250 g/ha, scale 0 to 10 (0 no effect, 10 complete control)
structure (smiles),measurement,setting,value
CC(C)N(C(=O)n1oc(=O)n(CCCC#N)c1=O)c1ccccc1 [Compound 674],"Plant response rating, Rice (0 to 10 scale, 0 is no effect, 10 is complete control)",[1]; [21],0
same,"Rice plant response rating (0 to 10 scale, 0 is no effect, 10 is complete control)",[1]; [22],0
same,Rice plant response rating,[1]; [23],0
same,Rice plant response rating,[1]; [24],0
same,"Plant response rating, Nutsedge",[2]; [25],0
same,Nutsedge plant response rating,[2]; [26],3
same,Nutsedge plant response rating,[2]; [27],0
same,"Plant response rating, Nutsedge",[2]; [28],0
same,"Plant response rating, Nutsedge",[2]; [29],6
same,"Plant response rating, Soybean",[3]; [25],2
same,Soybean plant response rating,[3]; [26],3
same,Soybean plant response rating,[3]; [27],3
same,"Plant response rating, Soybean",[3]; [28],3
same,"Plant response rating, Soybean",[3]; [29],7
same,Soybean plant response rating,[3]; [30],7
same,"Plant response rating, Ducksalad (0 to 10 scale, 0 is no effect, 10 is complete control)",[4]; [21],0
same,"Ducksalad plant response rating (0 to 10 scale, 0 is no effect, 10 is complete control)",[4]; [22],0
same,Ducksalad plant response rating,[4]; [23],0
same,Ducksalad plant response rating,[4]; [24],0
same,"Plant response rating, Blackgrass",[5]; [25],4
same,Blackgrass plant response rating,[5]; [26],7
same,Blackgrass plant response rating,[5]; [31],8
same,Blackgrass plant response rating,[5]; [27],6
same,"Plant response rating, Blackgrass",[5]; [28],8
same,"Plant response rating, Blackgrass",[5]; [32],9
same,"Plant response rating, Blackgrass",[5]; [29],9
same,Blackgrass plant response rating,[5]; [30],9
same,Bedstraw plant response rating,[6]; [31],0
same,Bedstraw plant response rating,[6]; [27],0
same,"Plant response rating, Bedstraw",[6]; [28],0
same,"Plant response rating, Bedstraw",[6]; [29],0
same,"Plant response rating, Morningglory",[7]; [25],2
same,Morningglory plant response rating,[7]; [26],2
same,Morningglory plant response rating,[7]; [31],10
same,Morningglory plant response rating,[7]; [27],0
same,"Plant response rating, Morningglory",[7]; [28],0
same,"Plant response rating, Morningglory",[7]; [29],7
same,"Plant response rating, Velvetleaf",[8]; [25],4
same,Velvetleaf plant response rating,[8]; [26],6
same,Velvetleaf plant response rating,[8]; [27],6
same,"Plant response rating, Velvetleaf",[8]; [28],7
same,"Plant response rating, Velvetleaf",[8]; [29],10
same,Velvetleaf plant response rating,[8]; [30],8
same,"Plant response rating, B. signalgrass",[9]; [25],3
same,B. signalgrass plant response rating,[9]; [26],5
same,B. signalgrass plant response rating,[9]; [31],8
same,B. signalgrass plant response rating,[9]; [27],6
same,"Plant response rating, B. signalgrass",[9]; [28],7
same,"Plant response rating, B. signalgrass",[9]; [32],8
same,"Plant response rating, B. signalgrass",[9]; [29],8
same,B. signalgrass plant response rating,[9]; [30],8
same,"Plant response rating, Rape",[10]; [25],0
same,Rape plant response rating,[10]; [26],0
same,Rape plant response rating,[10]; [27],0
same,"Plant response rating, Rape",[10]; [28],3
same,"Plant response rating, Rape",[10]; [29],8
same,Rape plant response rating,[10]; [30],5
same,"Plant response rating, Wheat",[11]; [25],0
same,Wheat plant response rating,[11]; [26],0
same,Wheat plant response rating,[11]; [27],0
same,"Plant response rating, Wheat",[11]; [28],5
same,"Plant response rating, Wheat",[11]; [29],8
same,Wheat plant response rating,[11]; [30],7
same,"Plant response rating, Barnyardgrass (0 to 10 scale, 0 is no effect, 10 is complete control)",[12]; [21],0
same,"Barnyardgrass plant response rating (0 to 10 scale, 0 is no effect, 10 is complete control)",[12]; [22],0
same,Barnyardgrass plant response rating,[12]; [23],0
same,Barnyardgrass plant response rating,[12]; [24],0
same,"Plant response rating, Crabgrass",[13]; [25],6
same,Crabgrass plant response rating,[13]; [26],8
same,Crabgrass plant response rating,[13]; [31],9
same,Crabgrass plant response rating,[13]; [27],8
same,"Plant response rating, Crabgrass",[13]; [28],9
same,"Plant response rating, Crabgrass",[13]; [32],9
same,"Plant response rating, Crabgrass",[13]; [29],9
same,Crabgrass plant response rating,[13]; [30],9
same,"Plant response rating, S. Flatsedge (0 to 10 scale, 0 is no effect, 10 is complete control)",[14]; [21],0
same,"S. Flatsedge plant response rating (0 to 10 scale, 0 is no effect, 10 is complete control)",[14]; [22],0
same,S. Flatsedge plant response rating,[14]; [23],0
same,S. Flatsedge plant response rating,[14]; [24],0
same,"Plant response rating, Redroot pigweed",[15]; [25],0
same,Redroot pigweed plant response rating,[15]; [26],3
same,Redroot pigweed plant response rating,[15]; [27],7
same,"Plant response rating, Redroot pigweed",[15]; [28],7
same,"Plant response rating, Redroot pigweed",[15]; [29],10
same,Redroot pigweed plant response rating,[15]; [30],7
same,"Plant response rating, Wild oats",[16]; [25],0
same,Wild oats plant response rating,[16]; [26],0
same,Wild oats plant response rating,[16]; [27],1
same,"Plant response rating, Wild oats",[16]; [28],3
same,"Plant response rating, Wild oats",[16]; [29],10
same,Wild oats plant response rating,[16]; [30],3
same,"Plant response rating, Cocklebur",[17]; [25],0
same,Cocklebur plant response rating,[17]; [26],0
same,Cocklebur plant response rating,[17]; [31],2
same,Cocklebur plant response rating,[17]; [27],0
same,"Plant response rating, Cocklebur",[17]; [28],0
same,"Plant response rating, Cocklebur",[17]; [32],0
same,"Plant response rating, Cocklebur",[17]; [29],0
same,Cocklebur plant response rating,[17]; [30],4
same,"Plant response rating, Corn",[18]; [25],0
same,Corn plant response rating,[18]; [26],3
same,Corn plant response rating,[18]; [31],6
same,Corn plant response rating,[18]; [27],2
same,"Plant response rating, Corn",[18]; [28],3
same,"Plant response rating, Corn",[18]; [32],5
same,"Plant response rating, Corn",[18]; [29],8
same,Corn plant response rating,[18]; [30],7
same,"Plant response rating, Giant foxtail",[19]; [25],7
same,Giant foxtail plant response rating,[19]; [26],9
same,Giant foxtail plant response rating,[19]; [31],9
same,Giant foxtail plant response rating,[19]; [27],6
same,"Plant response rating, Giant foxtail",[19]; [28],9
same,"Plant response rating, Giant foxtail",[19]; [29],10
same,Giant foxtail plant response rating,[19]; [30],9
same,"Plant response rating, Sugarbeets",[20]; [25],0
same,Sugarbeets plant response rating,[20]; [26],0
same,Sugarbeets plant response rating,[20]; [27],2
same,"Plant response rating, Sugarbeets",[20]; [28],5
same,"Plant response rating, Sugarbeets",[20]; [29],9
same,Sugarbeets plant response rating,[20]; [30],5
